Measured values as given in ChEMBL document CHEMBL4004868, “Synthesis and in vitro biological evaluation of novel quinazoline derivatives” (Bioorg Med Chem Lett, 2017).
Calls of active or inactive are those of the source. No cut-off for these calls is given here.

Columns and labels:
[1] = tested on: SW480; test: Cytotoxicity against human SW480 cells assessed as decrease in cell viability after 72 hrs by MTT assay; format: functional
[2] = tested on: A549; test: Cytotoxicity against human A549 cells assessed as decrease in cell viability after 72 hrs by MTT assay; format: functional
[3] = tested on: A-431; test: Cytotoxicity against human A431 cells assessed as decrease in cell viability after 72 hrs by MTT assay; format: functional
[4] = tested on: NCI-H1975; test: Cytotoxicity against human NCI-H1975 cells assessed as decrease in cell viability after 72 hrs by MTT assay; format: functional
[5] = molecular target: T1, Epidermal growth factor receptor (Homo sapiens, UniProt P00533); test: Inhibition of wild type recombinant EGFR (unknown origin) using poly (Glu,Tyr) 4:1 as substrate after 60 mins by ELISA
T1 sequence (P00533 whole entry): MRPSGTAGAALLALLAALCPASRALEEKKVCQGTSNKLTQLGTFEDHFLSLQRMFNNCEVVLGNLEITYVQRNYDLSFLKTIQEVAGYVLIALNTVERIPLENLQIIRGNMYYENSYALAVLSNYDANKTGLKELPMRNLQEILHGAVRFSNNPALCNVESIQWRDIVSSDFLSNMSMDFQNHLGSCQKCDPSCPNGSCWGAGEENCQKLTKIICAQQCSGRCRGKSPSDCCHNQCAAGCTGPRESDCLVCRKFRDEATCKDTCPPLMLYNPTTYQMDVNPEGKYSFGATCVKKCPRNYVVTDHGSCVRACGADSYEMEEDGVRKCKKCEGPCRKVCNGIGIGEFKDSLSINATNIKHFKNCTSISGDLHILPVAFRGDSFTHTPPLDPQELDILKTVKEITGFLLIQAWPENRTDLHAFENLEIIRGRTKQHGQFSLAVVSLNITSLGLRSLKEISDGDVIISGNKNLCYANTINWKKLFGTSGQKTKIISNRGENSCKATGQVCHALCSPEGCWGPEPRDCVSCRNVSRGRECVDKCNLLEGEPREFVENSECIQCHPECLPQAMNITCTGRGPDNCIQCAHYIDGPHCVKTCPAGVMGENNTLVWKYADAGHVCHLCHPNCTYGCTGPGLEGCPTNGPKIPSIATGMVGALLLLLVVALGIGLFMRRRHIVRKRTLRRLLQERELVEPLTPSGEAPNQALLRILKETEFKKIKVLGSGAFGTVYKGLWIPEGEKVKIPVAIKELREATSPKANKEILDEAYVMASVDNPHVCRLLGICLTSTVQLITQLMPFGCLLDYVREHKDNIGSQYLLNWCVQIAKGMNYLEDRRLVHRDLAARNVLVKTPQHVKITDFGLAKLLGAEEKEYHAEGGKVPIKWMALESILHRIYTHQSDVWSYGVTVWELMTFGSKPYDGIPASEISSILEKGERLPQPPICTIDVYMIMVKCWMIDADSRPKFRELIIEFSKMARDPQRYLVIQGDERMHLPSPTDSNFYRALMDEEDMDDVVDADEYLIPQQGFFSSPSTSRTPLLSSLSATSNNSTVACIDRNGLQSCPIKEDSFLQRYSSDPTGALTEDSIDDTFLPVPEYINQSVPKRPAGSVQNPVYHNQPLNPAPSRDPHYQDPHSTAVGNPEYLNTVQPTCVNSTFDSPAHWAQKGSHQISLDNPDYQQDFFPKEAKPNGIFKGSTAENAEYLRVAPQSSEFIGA

[6] = molecular target: T1, Epidermal growth factor receptor; test: Inhibition of EGFR phosphorylation at Tyr residue in human NCI-H1975 cells at 50 uM preincubated for 2 hrs followed by EGF induction measured after 10 mins by Western blot method; format: cell-based
[7] = molecular target: T1, Epidermal growth factor receptor; test: Inhibition of EGFR phosphorylation at Tyr residue in human A549 cells at 1 uM preincubated for 2 hrs followed by EGF induction measured after 10 mins by Western blot method; format: cell-based
[8] = molecular target: T1, Epidermal growth factor receptor; test: Inhibition of EGFR phosphorylation at Y1068 in human NCI-H1975 cells at 50 uM preincubated for 2 hrs followed by EGF induction measured after 10 mins by Western blot method; format: cell-based
[9] = tested on: A549; test: Effect on total Erk levels in human A549 cells at 1 to 50 uM after 2 hrs by Western blot method; format: ADME, cell-based; conditions: a549, 2 h
[10] = molecular target: T1, Epidermal growth factor receptor; test: Inhibition of EGFR phosphorylation at Y1068 in human A549 cells at 1 uM preincubated for 2 hrs followed by EGF induction measured after 10 mins by Western blot method; format: cell-based
[11] = molecular target: T1, Epidermal growth factor receptor; test: Inhibition of EGFR in human NCI-H1975 cells assessed as decrease in Erk1/2 phosphorylation at T202/204 at 50 uM preincubated for 2 hrs followed by EGF induction measured after 10 mins by Western blot method; format: cell-based
[12] = tested on: A549; test: Effect on total Akt levels in human A549 cells at 1 to 50 uM after 2 hrs by Western blot method; format: ADME, cell-based; conditions: a549, 2 h
[13] = tested on: A549; test: Effect on total GAPDH levels in human A549 cells at 1 to 50 uM after 2 hrs by Western blot method; format: ADME, cell-based; conditions: a549, 2 h
[14] = molecular target: T1, Epidermal growth factor receptor; test: Inhibition of EGFR in human A549 cells assessed as decrease in Akt phosphorylation at S473 at 1 uM preincubated for 2 hrs followed by EGF induction measured after 10 mins by Western blot method; format: cell-based
[15] = tested on: A549; test: Effect on total EGFR levels in human A549 cells at 1 to 50 uM after 2 hrs by Western blot method; format: ADME, cell-based; conditions: a549, 2 h
[16] = molecular target: T1, Epidermal growth factor receptor; test: Inhibition of EGFR in human NCI-H1975 cells assessed as decrease in Akt phosphorylation at S473 at 50 uM preincubated for 2 hrs followed by EGF induction measured after 10 mins by Western blot method; format: cell-based
[17] = molecular target: T1, Epidermal growth factor receptor; test: Inhibition of EGFR in human A549 cells assessed as decrease in ERK1/2 phosphorylation at T202/204 at 1 uM preincubated for 2 hrs followed by EGF induction measured after 10 mins by Western blot method; format: cell-based

SMILES | IG50 [1] [µM] | IG50 [2] [µM] | IG50 [3] [µM] | IG50 [4] [µM] | other results
CS(=O)(=O)CCNCc1ccc(-c2ccc3ncnc(Nc4ccc(OCc5cccc(F)c5)c(Cl)c4)c3c2)o1 [LAPATINIB] | 12.58 | 14.9 | 4.8 | 9.08 | 
CC(=O)OCc1ccc(-c2ccc3ncnc(Nc4ccc(F)c(Cl)c4)c3c2)o1 | 43.18 | >100 | 10.75 | 54.13 | 
OCc1ccc(-c2ccc3ncnc(Nc4ccc(F)c(Cl)c4)c3c2)o1 | >100 | >100 | 3.91 | >100 | 
CC(=O)OCc1ccc(-c2ccc3ncnc(Nc4ccc(OCc5cccc(F)c5)c(Cl)c4)c3c2)o1 | 5.18 | 5.49 | 8.33 | 6.78 | 
C#Cc1cccc(Nc2ncnc3ccc(-c4ccc(CO)o4)cc23)c1 | >100 | >100 | 3.21 | >100 | IC50 [5]: 15.7 nM
C#Cc1cccc(Nc2ncnc3ccc(-c4ccc(CNCCS(C)(=O)=O)o4)cc23)c1 | 13.38 | 11.35 | 5.78 | 14.92 | 
C/C=C/c1ccc(Nc2ncnc3ccc(-c4ccc(COC(C)=O)o4)cc23)cc1 | 11.18 | 20.61 | 5.53 | 40.85 | 
CS(=O)(=O)CCNCc1ccc(-c2ccc3ncnc(Nc4ccc(F)c(Cl)c4)c3c2)o1 | 60.59 | >100 | 39.34 | 83.61 | IC50 [5]: 24 nM
C#Cc1cccc(Nc2ncnc3ccc(-c4ccc(COC(C)=O)o4)cc23)c1 | 14.97 | 4.05 | 1.28 | 5.4 | 
C/C=C/c1ccc(Nc2ncnc3ccc(-c4ccc(CNCCS(C)(=O)=O)o4)cc23)cc1 | 56.34 | 84.5 | 37.56 | >100 | 
OCc1ccc(-c2ccc3ncnc(Nc4ccc(OCc5cccc(F)c5)c(Cl)c4)c3c2)o1 | 5.58 | 7.35 | 3.64 | 3.01 | inhibition [6]: Active; inhibition [7]: Active; IC50 [5]: 5.06 nM; inhibition [8]: Active; Activity [9]: Non-Toxic; inhibition [10]: Active; inhibition [11]: Active; Activity [12]: Non-Toxic; Activity [13]: Non-Toxic; inhibition [14]: Active; Activity [15]: Non-Toxic; inhibition [16]: Active; inhibition [17]: Active
C/C=C/c1ccc(Nc2ncnc3ccc(-c4ccc(CO)o4)cc23)cc1 | 51.25 | 38.24 | 21.43 | 37.93 | 
